From paper PMC7128415 (Journal of Clinical Virology, 2004)
Values after ≈ are worked out from the molar mass of the structure shown. Where two headings read alike, the source gives them in different places.

What was measured:
SARS coronavirus [1] = assay type: cell-based
[2] = in vivo, cited from earlier work
SARS coronavirus [3] = system: SARS coronavirus
[4] = human, in vivo, po
SARS coronavirus [5] = assay: microbe, parasite or virus in culture; assay type: cell-based; settings: Severe acute respiratory syndrome coronavirus, Vero, read-out: EC50 (plaque reduction assay)
in vitro = settings: rhesus monkey
HIV-1 = settings: cited from earlier work
[6] = system: HIV-1 reverse transcriptase; settings: cited from earlier work
SARS coronavirus [7] = assay: microbe, parasite or virus in culture; settings: Severe acute respiratory syndrome coronavirus, FRhK-4, 48 h, read-out: EC50 at 48 h
various viruses = settings: cited from earlier work
SARS-associated virus = settings: cited from earlier work
[8] = system: rhinovirus, coronavirus, and respiratory syncytial virus; settings: in vivo; cited from earlier work
genital herpes = settings: in vivo; cited from earlier work
rhinovirus = settings: in vivo; cited from earlier work
CMV = settings: human, in vivo; cited from earlier work

Molecule: O=C(O)[C@H]1O[C@@H](Oc2cc3oc(-c4ccccc4)cc(=O)c3c(O)c2O)[C@H](O)[C@@H](O)[C@@H]1O [Baicalin, baicalin]
- activity in Vero-E6 cell line compared with fRhK-4 (SARS coronavirus [1]): less active
- Serum level (after oral administration), Cmax ([2]; human, po): Cmax = 60 ng/ml (189.8 mg per person, in human). The amount (i.e., 189.8 mg per person) used for the experiment is very low
- Half life (in humans) ([2]; human): ∼3 h
- Serum level (after intravenous administration), Cmax [2]: Cmax = 74 μg/ml (360 mg per person)
- EC50 at 48 h (SARS coronavirus [3]): 12.5 µg/mL (≈ 28 µM)
- SI = CC50/EC50 at 48 h (SARS coronavirus [3]): >4 to 8
- antiviral activities (SARS coronavirus [3]): detectable antiviral activities
- antiviral activity (SARS coronavirus [3]): showed antiviral activity
- inhibitory activities by neutralization tests (SARS coronavirus [3]): detectable inhibitory activities
- serum concentration [4]: 470 ng/mL
- EC50 (SARS coronavirus [5]): 11 µg/mL (≈ 24.6 µM)
- CC50 (in vitro): > 100 µg/mL
- Antiviral effect (HIV-1): Inhibition of HIV-1
- inhibition of HIV-1 (HIV-1): shown to inhibit HIV-1
- inhibition of HIV-1 reverse transcriptase [6]: known to inhibit HIV-1 reverse transcriptase
- EC50 (SARS coronavirus [7]): 12.5 to 25 µg/mL (≈ 28 to 56 µM)

Molecule: O=C(/C=C/c1ccc(O)c(O)c1)O[C@@H]1C[C@](O)(C(=O)O)C[C@@H](O)[C@H]1O [Chlorogenic acid, chlorogenic acid]
- Serum level (after intravenous administration), Cmax [2]: Cmax = 34 μg/ml (24 mg per person)
- inhibitory activities in initial screening (SARS coronavirus [3]): not detectable
- Antiviral effect (various viruses): Inhibition of various viruses

Molecule: CC1(C)[C@@H](O[C@H]2O[C@H](C(=O)O)[C@@H](O)[C@H](O)[C@H]2O[C@@H]2O[C@H](C(=O)O)[C@@H](O)[C@H](O)[C@H]2O)CC[C@]2(C)[C@H]3C(=O)C=C4[C@@H]5C[C@@](C)(C(=O)O)CC[C@]5(C)CC[C@@]4(C)[C@]3(C)CC[C@@H]12 [Glycyrrhizin, glycyrrhizin]
- Antiviral effect (SARS-associated virus): Inhibition of SARS-associated virus
- activity in Vero-E6 cell lines (SARS-associated virus): reported to be active
- antiviral activity against SARS coronavirus (SARS-associated virus): significant antiviral activity
- activity in Vero-E6 cell line compared with fRhK-4 (SARS coronavirus [1]): more active
- Half life (in humans) ([2]; human): ∼10 h
- Serum level (after intravenous administration), Cmax [2]: Cmax = 80 μg/ml (200 mg per person)
- antiviral activity (SARS coronavirus [3]): showed antiviral activity
- inhibitory activities in initial screening (SARS coronavirus [3]): not detectable
- CC50 (in vitro): > 400 µg/mL
- EC50 (SARS coronavirus [7]): > 400 µg/mL

Molecule: Cc1cccc(C)c1OCC(=O)N[C@@H](Cc1ccccc1)[C@@H](O)C[C@H](Cc1ccccc1)NC(=O)[C@H](C(C)C)N1CCCNC1=O [Lopinavir, lopinavir]
- activity in Vero-E6 cell line compared with fRhK-4 (SARS coronavirus [1]): less active
- antiviral activities (SARS coronavirus [3]): detectable antiviral activities
- antiviral activity (SARS coronavirus [3]): showed antiviral activity
- inhibitory activities by neutralization tests (SARS coronavirus [3]): detectable inhibitory activities
- EC50 (SARS coronavirus [5]): 6 µg/mL (≈ 9.54 µM)
- CC50 (in vitro): 32 µg/mL (≈ 50.9 µM)
- EC50 (SARS coronavirus [7]): 1 to 4 µg/mL (≈ 1.59 to 6.36 µM)

Molecule: NC(=O)c1ncn([C@@H]2O[C@H](CO)[C@@H](O)[C@H]2O)n1 [Ribavirin, ribavirin]
- activity in Vero-E6 cell line compared with fRhK-4 (SARS coronavirus [1]): less active
- SI = CC50/EC50 at 48 h (SARS coronavirus [3]): 5 to >80
- antiviral activities (SARS coronavirus [3]): detectable antiviral activities
- antiviral activity (SARS coronavirus [3]): showed antiviral activity
- inhibitory activities by neutralization tests (SARS coronavirus [3]): detectable inhibitory activities
- EC50 (SARS coronavirus [5]): 50 µg/mL (≈ 205 µM)
- CC50 (in vitro): > 1000 µg/mL

Molecule: CC(N)C12CC3CC(CC(C3)C1)C2 (stereo not shown) [Rimantadine, rimantadine]
- activity in Vero-E6 cell line compared with fRhK-4 (SARS coronavirus [1]): more active
- EC50 at 48 h (SARS coronavirus [3]): 16 µg/mL (≈ 89.2 µM)
- antiviral activities (SARS coronavirus [3]): detectable antiviral activities
- antiviral activity (SARS coronavirus [3]): showed antiviral activity
- inhibitory activities by neutralization tests (SARS coronavirus [3]): detectable inhibitory activities
- EC50 (SARS coronavirus [5]): 7 µg/mL (≈ 39 µM)
- CC50 (in vitro): 64 µg/mL (≈ 357 µM)
- EC50 (SARS coronavirus [7]): 8 to 16 µg/mL (≈ 44.6 to 89.2 µM)

Molecule: Nc1nc(NC2CC2)c2ncn([C@H]3C=C[C@@H](CO)C3)c2n1 [abacavir]
- inhibitory activities in initial screening (SARS coronavirus [3]): did not reveal inhibitory activities

Molecule: Nc1nc2c(ncn2COCCO)c(=O)[nH]1 [acyclovir]
- inhibitory activities in initial screening (SARS coronavirus [3]): did not reveal inhibitory activities

Molecule: NC12CC3CC(CC(C3)C1)C2 [amantadine]
- inhibitory activities in initial screening (SARS coronavirus [3]): did not reveal inhibitory activities

Molecule: C[C@H]1[C@H](OC(=O)CCC(=O)O)O[C@@H]2O[C@@]3(C)CC[C@H]4[C@H](C)CC[C@@H]1[C@@]24OO3 [artesunate]
- inhibitory activities in initial screening (SARS coronavirus [3]): not detectable

Molecule: Nc1ccn(C[C@@H](CO)OCP(=O)(O)O)c(=O)n1 [cidofovir]
- inhibitory activities in initial screening (SARS coronavirus [3]): did not reveal inhibitory activities

Molecule: O=C(O)P(=O)(O)O [foscarnet]
- inhibitory activities in initial screening (SARS coronavirus [3]): did not reveal inhibitory activities

Molecule: Nc1nc(O)c2ncn(COC(CO)CO)c2n1 [ganciclovir]
- inhibitory activities in initial screening (SARS coronavirus [3]): did not reveal inhibitory activities

Molecule: Cc1ccnc2c1NC(=O)c1cccnc1N2C1CC1 [nevirapine]
- inhibitory activities in initial screening (SARS coronavirus [3]): did not reveal inhibitory activities

Molecule: CC(C)c1nc(CN(C)C(=O)N[C@H](C(=O)N[C@@H](Cc2ccccc2)C[C@H](O)[C@H](Cc2ccccc2)NC(=O)OCc2cncs2)C(C)C)cs1 [ritonavir]
- inhibitory activities in initial screening (SARS coronavirus [3]): did not reveal inhibitory activities

Molecule: Cc1cn([C@H]2C=C[C@@H](CO)O2)c(=O)[nH]c1=O [stavudine]
- inhibitory activities in initial screening (SARS coronavirus [3]): did not reveal inhibitory activities

Molecule: Cc1cn([C@H]2C[C@H](N=[N+]=[N-])[C@@H](CO)O2)c(=O)[nH]c1=O [zidovudine]
- inhibitory activities in initial screening (SARS coronavirus [3]): did not reveal inhibitory activities

Molecule: interferon-alpha
- protection against experimental human infection [8]: protect
- reduction in symptoms or lesion duration of genital herpes (genital herpes): did not produce a consistent reduction
- protection against rhinovirus-induced common cold (rhinovirus): protective
- preventing CMV infections or treating CMV pneumonia (CMV): not effective

B1: Interferon-gamma: Interferon-gamma, reported in the literature (protein, UniProt P01579 24-161, looked up)
Interferon gamma: QDPYVKEAENLKKYFNAGHSDVADNGTLFLGILKNWKEESDRKIMQSQIVSFYFKLFKNFKDDQSIQKSVETIKEDMNVKFFNSNKKKRDDFEKLTNYSVTDLNVQRKAIHELIQVMAELSPAAKTGKRKRSQMLFRG
- antiviral activity against SARS coronavirus (SARS-associated virus): not to possess antiviral activity
